Publication PMC6835155, “Lessons from LIMK1 enzymology and their impact on inhibitor design” (Biochemical Journal, 2019)
Read-outs that look alike come from different tables or passages of the source.

Experiments:
LIMK1KD [1] = target: T1, LIMK1KD (Homo sapiens, UniProt P53667); assay: Differential (dynamic) scanning fluorimetry (DSF) assay, LIMK1KD; type: binding; settings: for ΔTm at 10 µM: read-out: TM Shift LIMK1 (K)
T1 construct: His6 (N, cleaved yes); made in house; host or cells: baculovirus; Sf9 for virus, TriEx insect cells for expression
T1 sequence (P53667 330-637): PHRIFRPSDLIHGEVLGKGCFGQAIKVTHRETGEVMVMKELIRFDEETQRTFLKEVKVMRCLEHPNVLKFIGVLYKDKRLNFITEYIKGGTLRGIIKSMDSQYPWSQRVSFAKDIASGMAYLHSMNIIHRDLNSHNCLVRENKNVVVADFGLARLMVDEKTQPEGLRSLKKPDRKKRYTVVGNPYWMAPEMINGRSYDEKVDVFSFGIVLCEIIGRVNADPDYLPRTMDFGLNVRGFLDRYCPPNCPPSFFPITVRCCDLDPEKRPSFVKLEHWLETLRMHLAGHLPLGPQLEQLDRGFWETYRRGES

LIMK2KD = target: T2, LIMK2KD (Homo sapiens, UniProt P53671); assay: Differential (dynamic) scanning fluorimetry (DSF) assay, LIMK2KD; type: binding; settings: for ΔTm at 10 µM: read-out: TM Shift LIMK2 (K)
T2 construct: The cDNA coding for LIMK2 residues 330 to 632 was PCR amplified; His6 (N, cleaved yes); made in house; host or cells: baculovirus; Sf9 for virus, TriEx insect cells for expression
T2 sequence (P53671 330-632): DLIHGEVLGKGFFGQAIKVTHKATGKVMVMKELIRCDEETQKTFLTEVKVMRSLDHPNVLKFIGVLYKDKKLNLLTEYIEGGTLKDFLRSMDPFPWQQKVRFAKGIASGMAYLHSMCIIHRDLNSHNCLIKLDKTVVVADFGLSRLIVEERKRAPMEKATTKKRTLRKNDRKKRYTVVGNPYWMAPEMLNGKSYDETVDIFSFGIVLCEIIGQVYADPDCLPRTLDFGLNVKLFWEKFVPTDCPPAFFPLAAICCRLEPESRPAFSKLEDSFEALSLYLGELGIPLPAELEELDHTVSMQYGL

LIMK1KD [2] = target: T1, LIMK1KD; assay: RapidFire mass spec kinase activity assay (CFL1 phosphorylation); type: biochemical; settings: 40 nM LIMK1KD, 2 µM CFL1, 800 µM ATP, 60 min; read-out: LIMK1 IC50
LIMK1 = settings: cited from earlier work
[3] = 2 µM LIMK1KD, compound 10 µM, single shot
[4] = LIMK2KD, compound 10 µM, single shot

Molecule	TM Shift LIMK1 (K) (LIMK1KD [1]; [3])	TM Shift LIMK2 (K) (LIMK2KD; [4])	other results
CNC(=O)c1cc(Oc2ccc(NC(=O)Nc3cc(C(C)(C)C)nn3-c3ccc4ncccc4c3)c(F)c2)ccn1 [DCC-2036 (Rebastinib), Rebastinib]			ΔTm at 10 µM (LIMK1KD [1]; [3]): 10 °C; ΔTm at 10 µM (LIMK2KD; [4]): 4.8 °C; IC50 (LIMK1KD [2]): 75 nM
CC(C)(C)c1nc(-c2cccc(NS(=O)(=O)c3c(F)cccc3F)c2F)c(-c2ccnc(N)n2)s1 [Dabrafenib (GSK2118436), Dabrafenib]	10		ΔTm at 10 µM (LIMK1KD [1]; [3]): 10.3 °C; TM Shift LIMK2 (K) (LIMK2KD; LIMK2KD, compound 10 µM, single shot, 10 µM): 11 K; ΔTm at 10 µM (LIMK2KD; [4]): 11.1 °C; IC50 (LIMK1KD [2]): 14 nM
Cc1c[nH]c2ncnc(N3CCC(CN)(C(=O)Nc4cccc(OC(=O)N(C)C)c4)CC3)c12 [LX-7101]			IC50 (LIMK1; read-out: LIMK1 IC50): 32 nM
Cn1cc(-c2[nH]c3cc(NC(=O)[C@H](N)C4CCCCC4)cc4c3c2C=NNC4=O)cn1 [PF-477736]	11		ΔTm at 10 µM (LIMK1KD [1]; [3]): 11.1 °C; ΔTm at 10 µM (LIMK2KD; [4]): 9 °C; IC50 (LIMK1KD [2]): 4.4 nM
C[C@@H](N)[C@H]1CC[C@H](C(=O)Nc2ccncc2)CC1.Cl.Cl [Y-27632 2HCl]	-0.7	0.9	
Nc1ccc(C(=O)Nc2cccc(-c3nc(N4CCOCC4)c4oc5ncccc5c4n3)c2)cn1 [YM201636]	0.6	3.8	
Cc1cc(C)nc(NS(=O)(=O)c2ccc(NC(=S)NC(=O)COc3ccc(Br)cc3Cl)cc2)n1 [ZCL278]	-1.0	1.2	
CC(C)N(CCC(=O)c1ccc2ccccc2c1)Cc1ccccc1.Cl [ZM 39923 HCl]	0.2	-1.4	
COc1cc2ncnc(Nc3ccc(Cl)cc3F)c2cc1OC [ZM 306416]	0.4	1.8	
Cc1cc(F)c(Nc2ncnc3cc(OCc4ccccc4)ccc23)cc1O.Cl [ZM 323881 HCl]	0.0	2.6	
Cc1ccc(NC(=O)c2cccc(N(C)C)c2)cc1NC(=O)c1ccc(O)cc1 [ZM 336372]	0.7	0.2	
COc1cc2c(Nc3ccc(NC(=O)c4ccccc4)cc3)ncnc2cc1OCCCN1CCOCC1 [ZM 447439]	0.1	0.8	
FC(F)c1nc2ccccc2n1-c1nc(N2CCOCC2)nc(N2CCOCC2)n1 [ZSTK474]			ΔTm at 10 µM (LIMK1KD [1]; [3]): -1 °C; ΔTm at 10 µM (LIMK2KD; [4]): 0 °C
O=P(O)(O)C(O)(Cn1ccnc1)P(=O)(O)O [Zoledronic Acid]			ΔTm at 10 µM (LIMK1KD [1]; [3]): -0.7 °C; ΔTm at 10 µM (LIMK2KD; [4]): 1.3 °C
AZ23	3.6	0.8	
AZD4547	-0.1	-0.1	
CHIR-98014			TM Shift LIMK1 (K) (LIMK1KD [1]): 5.0 K; TM Shift LIMK2 (K) (LIMK2KD; 10 µM): 0.0 K
WYE-354	0.2	4.1	
